These results are taken from PubChem BioAssay (NCI).

Some test systems named below: HCC-2998 colon; UO-31 renal; RPMI-8226 leukemia; MALME-3M melanoma; COLO 205 colon; NCI/ADR-RES ovarian; UACC-62 melanoma; MOLT-4 leukemia; IGROV1 ovarian; CCRF-CEM leukemia; HOP-92 NSCLC.
Common to all, as to test: inhibition of tumour cell growth, NCI panel, 48 h

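Each compound was tested at five concentrations against cells in 96-well plates for 48 hours. Definition used: TGI = concentration required for complete inhibition of growth.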

`CCN(CC)C(=S)SC(C(=O)Nc1nnc(-c2ccc(Cl)cc2)o1)c1ccccc1` (stereo not given): the TGI was found to be 16.9 µM with HCC-2998 colon; 52.1 µM in the assay with UO-31 renal; 22 µM in the assay with RPMI-8226 leukemia; 32.7 µM in the assay on MALME-3M melanoma; 14.5 µM in the assay on COLO 205 colon; 30.5 µM in the assay on NCI/ADR-RES ovarian. Moreover, the TGI in the assay with UACC-62 melanoma was 23.6 µM; in the assay with MOLT-4 leukemia, > 100 µM; in the assay on IGROV1 ovarian it was 8.33 µM; with CCRF-CEM leukemia, 9.82 µM; in the assay on HOP-92 NSCLC, 51.5 µM.

For the compound `O=[N+]([O-])c1ccc(-n2nc3ccc4nonc4c3n2)cc1`, the TGI in the assay on HCC-2998 colon is > 100 µM; in the assay on UO-31 renal, 62.9 µM; in the assay on RPMI-8226 leukemia, > 100 µM; in the assay with MALME-3M melanoma, 89.2 µM; with COLO 205 colon it was > 100 µM; in the assay on NCI/ADR-RES ovarian, > 100 µM. For the same compound, the TGI in the assay with UACC-62 melanoma was > 100 µM; in the assay on MOLT-4 leukemia, > 100 µM; with IGROV1 ovarian it was > 100 µM; with CCRF-CEM leukemia, > 100 µM; in the assay with HOP-92 NSCLC, 65 µM.

For the compound `COC(=O)[C@]1(c2cc3ccccc3n2S(=O)(=O)c2ccccc2)CC2CN(C(=O)OCc3ccccc3)C1C1OC(C)(C)OC21` (stereo not given in full), the TGI with HCC-2998 colon, in the assay on UO-31 renal, with RPMI-8226 leukemia, with MALME-3M melanoma, in the assay with COLO 205 colon and in the assay on NCI/ADR-RES ovarian was > 100 µM throughout. Moreover, the TGI with UACC-62 melanoma, in the assay on MOLT-4 leukemia, in the assay with IGROV1 ovarian, with CCRF-CEM leukemia and with HOP-92 NSCLC was > 100 µM each time.

For `COc1cc(CCNC2=CC(=O)c3nc[nH]c3C2=O)ccc1O`, the TGI in the assay with HCC-2998 colon is 43 µM; with UO-31 renal, > 100 µM; in the assay with RPMI-8226 leukemia, 68.7 µM; in the assay on MALME-3M melanoma it was 26.1 µM; with COLO 205 colon, 56.5 µM; in the assay with NCI/ADR-RES ovarian it was > 100 µM. Also, the TGI is 36.8 µM in the assay on UACC-62 melanoma; 89.1 µM in the assay with MOLT-4 leukemia; 52.8 µM in the assay on IGROV1 ovarian; > 100 µM in the assay with CCRF-CEM leukemia; 73.3 µM in the assay with HOP-92 NSCLC.

Consider `COc1cc2c(cc1O)C1Cc3ccc(OC)c(O)c3C[N+]1(C)CC2` (stereo not given), for which the TGI in the assay with HCC-2998 colon, in the assay on UO-31 renal, in the assay with RPMI-8226 leukemia, with MALME-3M melanoma, with COLO 205 colon and in the assay with NCI/ADR-RES ovarian was > 100 µM throughout. The TGI with UACC-62 melanoma, with MOLT-4 leukemia, in the assay on IGROV1 ovarian, in the assay with CCRF-CEM leukemia and in the assay on HOP-92 NSCLC was > 100 µM throughout.

For the compound `CSC(SC)=C(C(=O)c1ccc(Cl)cc1)n1c(=O)sc2cc(Br)ccc21`, the TGI in the assay with HCC-2998 colon, in the assay on UO-31 renal, in the assay with RPMI-8226 leukemia, in the assay on MALME-3M melanoma, with COLO 205 colon and with NCI/ADR-RES ovarian was > 100 µM each time. Also, the TGI with UACC-62 melanoma, in the assay on MOLT-4 leukemia, in the assay on IGROV1 ovarian, with CCRF-CEM leukemia and in the assay on HOP-92 NSCLC was > 100 µM each time.

As to `O=C1c2ccccc2-c2nc3ccncc3n21`, the TGI in the assay with HCC-2998 colon, with UO-31 renal, with RPMI-8226 leukemia, with MALME-3M melanoma, with COLO 205 colon and in the assay on NCI/ADR-RES ovarian was > 100 µM each time. Besides, the TGI in the assay with UACC-62 melanoma, with MOLT-4 leukemia, in the assay with IGROV1 ovarian, with CCRF-CEM leukemia and in the assay on HOP-92 NSCLC was > 100 µM in each case.

On to `CCCCCC[C@H]([C@H](C)O)n1cnc2c(N)ncnc21`, for which the TGI with HCC-2998 colon, with UO-31 renal, with RPMI-8226 leukemia, with MALME-3M melanoma, in the assay with COLO 205 colon and in the assay on NCI/ADR-RES ovarian was > 100 µM in each case. The TGI in the assay with UACC-62 melanoma, in the assay with MOLT-4 leukemia, with IGROV1 ovarian, in the assay with CCRF-CEM leukemia and with HOP-92 NSCLC was > 100 µM throughout.

Consider `CC(=O)C(=Cc1cn(C)c(=O)n(C)c1=O)C(C)=O`, for which the TGI stood at 264 µM in the assay on HCC-2998 colon; 175 µM with UO-31 renal; 284 µM in the assay with RPMI-8226 leukemia; 201 µM in the assay on MALME-3M melanoma; 189 µM in the assay on COLO 205 colon; 286 µM in the assay on NCI/ADR-RES ovarian. The TGI with UACC-62 melanoma amounted to 148 µM; in the assay on MOLT-4 leukemia, 382 µM; in the assay with IGROV1 ovarian, 470 µM; in the assay on CCRF-CEM leukemia it was 294 µM; in the assay on HOP-92 NSCLC, 8.16 µM.

As to `CN1CCN(C(=O)c2cn(Cc3cncn3Cc3ccc4c(c3)OCO4)cc2-c2cccc3ccccc23)CC1`, the TGI with HCC-2998 colon is 27 µM; in the assay with UO-31 renal, > 100 µM; in the assay with RPMI-8226 leukemia, 38.7 µM; in the assay with MALME-3M melanoma, 26.6 µM; in the assay with COLO 205 colon it was 49.9 µM; in the assay with NCI/ADR-RES ovarian, > 100 µM. For the same compound, the TGI in the assay on UACC-62 melanoma was 46.8 µM; in the assay with MOLT-4 leukemia, 33.6 µM; with IGROV1 ovarian it was > 100 µM; with CCRF-CEM leukemia, > 77.2 µM; in the assay on HOP-92 NSCLC it was 57.8 µM.
